Read-outs that look alike come from different tables or passages of the source.
Columns and labels:
[1] = cited from earlier work
[2] = tested on: TGFβ1-induced hHSC; experiment: α-SMA ELISA in TGFβ1-activated human primary hepatic stellate cells (in vitro model of hepatic fibrogenesis); format: cell-based
Procedure: Serum-deprived HSC were preincubated for 1 hour with Elafibranor (A), Cenicriviroc (B), or Bezafibrate (PPAR pan α/γ/δ) before the activation with the profibrogenic cytokine TGFβ1 (1 ng/ml).
After 48 hours of incubation, the expression of α-SMA was measured by ELISA.
The obtained values were transformed into percentage inhibition over TGFβ1 control. Data are presented as mean (quadruplicates)±standard deviation (SD). Statistical analyses were performed by one-way ANOVA followed by Bonferroni post-hoc tests, using Sigma Plot 11.0 software. [*: p<0.05; **: p<0.01; ***: p<0.001 (comparison versus TGFβ1 1 ng/mL group)]. The curve fitting and the calculation of half maximal inhibitory concentration (IC50) were performed with XLFit software 5.3.1.3.
The human primary hepatic stellate cells (hHSC; Innoprot) were cultured in STeCM medium (ScienCell cat #5301) that was supplemented with 2% fetal bovine serum (FBS, ScienCell cat #0010), 1% penicillin/streptomycin (ScienCell cat #0503) and stellate cell growth supplement (SteCGS; ScienCell cat #5352). Cell-culture flasks were coated with Poly-L Lysine (Sigma cat #P4707) for a better adherence.
For these experiments, a checkerboard matrix was generated. […]
The level of α-SMA was measured using a Sandwich ELISA. […]

[3] = tested on: CDFF-fed mice; experiment: Chronic CDFF diet fibrosing NASH mouse model (8 weeks); format: in vivo, C57Bl/6J mice; conditions: Elafibranor 3 mg/kg/day, CVC 10 mg/kg/day or both
Procedure: The preventive effects of Elafibranor alone, CVC alone and their combination were assessed in a fibrosing NASH model of mice fed a CDAA+2% cholesterol+30% Milk fat diet and High Fructose Corn Syrup 55 (55% fructose/45% glucose for a final concentration of 42 g/L) in drinking water (Mells et al J Nutr Biochem 2015). 5-6 weeks old male C57Bl/6J mice were fed a control (CSAA) diet (n=4), CDFF diet (n=12), or CDFF diet supplemented with Elafibranor 3 mg/kg/day, CVC 10 mg/kg/day or combined drugs (Elafibranor 3 mg/kg/day combined to CVC 10 mg/kg/day) (n=8 per group) for 8 weeks.
The body weight, the food and water intake were monitored twice per week. On the last day of treatment, plasma samples were obtained from retro-orbital blood sampling and mice were sacrificed after a 6 h-fasting period. The liver was rapidly excised for biochemical and histological analyses. All animal procedures were performed according to standard protocols and in accordance with the standard recommendations for the proper care and use of laboratory animals.
A technician blinded to the source of each liver specimen performed histological examinations. Virtual slides were generated using the Pannoramic 250 scanner from 3D Histech. For each animal, a score summarizing the main histological lesions of NASH was attributed according to the NASH Clinical Research Network (Kleiner 2005, Brunt 1999). Briefly, steatosis, lobular inflammation and hepatocyte ballooning were scored. The NAFLD Activity Score (NAS score) was established for each individual as the unweighted sum of the steatosis (0-3), lobular inflammation (0-3) and the ballooning (0-2) injury grading.
Alanine aminotransferase (ALT) and aspartate aminotransferase (AST) concentrations were measured in plasma using the Randox kit for Daytona automate (Randox cat #AL 3801 and AS 3804, respectively). Plasma cytokeratin 18-M30, a surrogate marker of apoptosis, was measured using the Mouse Cytokeratin 18-M30 ELISA Kit (CUSABIO cat #CSB-E14265m), according to the manufacturer's recommendations. […]
Quantitative PCR was then carried out using the CFX96 Touch™ Real-Time PCR Detection System (Biorad). […]
Expression levels were normalized using the expression of GAPDH gene as a housekeeping gene of reference in samples. […] Expression levels were determined using the standard curve equation for both the housekeeping gene and the target gene (taking into account the specific PCR efficiency of each target gene).
To achieve this aim, NASH was induced by feeding C57Bl/6J mice with a choline-deficient L-amino-acid-defined-diet supplemented with 2% cholesterol and 30% milk fat, and high fructose corn syrup in drinking water (CDFF diet). […] NASH development was evaluated by histology, liver function tests, and biochemical and molecular analyses.

[4] = tested on: NASH with liver fibrosis; conditions: cited from earlier work
[5] = CVC 150 mg orally once daily, one year

For `CCCCOCCOc1ccc(-c2ccc3c(c2)C=C(C(=O)Nc2ccc([S@@+]([O-])Cc4cncn4CCC)cc2)CCCN3CC(C)C)cc1.CS(=O)(=O)O` [CVC mesylate, (S)-8-[4-(2-Butoxyethoxy)phenyl]-1-isobutyl-N-[4-[[(1-propyl-1H-imidazol-5-yl)methyl]sulfinyl]phenyl]-1,2,3,4-tetrahydro-1-benzazocine-5-carboxamide monomethanesulfonoate], the solubility ([1]; 99.5% ethanol) is listed as “sparingly soluble”, the solubility ([1]; acetonitrile, 1-octanol, tetrahydrofuran) is listed as “slightly soluble” and the solubility ([1]; aqueous solution at pH 3) is listed as “sparingly soluble”. The solubility ([1]; aqueous solution from pH 1 to 2) was “freely soluble”, the solubility ([1]; aqueous solution from pH 4 to 13 and in water) was “practically insoluble” and the solubility ([1]; ethyl acetate and diethylether) was “practically insoluble”. The solubility ([1]; glacial acetic acid, methanol, benzyl alcohol, dimethylsulfoxide, N,N-dimethylformamide) was “freely soluble” and the solubility ([1]; pyridine and acetic anhydride) was “soluble”.

In the case of `CCCCOCCOc1ccc(-c2ccc3c(c2)/C=C(/C(=O)Nc2ccc([S@@+]([O-])Cc4cncn4CCC)cc2)CCCN3CC(C)C)cc1` [CVC, (S,E)-8-(4-(2-Butoxyethoxy)phenyl)-1-(2-methylpropyl)-N-(4-(((1-propyl-1H-imidazol-5-yl)methyl)sulfinyl)phenyl)-1,2,3,4-tetrahydrobenzo[b]azocine-5-carboxamide], the “antifibrotic activity (α-SMA)” value ([2]; 5 μM alone (FIG. 2C)) is reported as “does not show any antifibrotic activity”, the “antifibrotic effect as single agent (α-SMA)” value ([2]; hHSC, TGFβ1 1 ng/ml, 48 h, all doses (FIG. 1B, 1C)) is reported as “did not show a significant effect” and the “NAS score (disease activity)” value ([3]; 8 weeks (FIG. 4A)) is reported as “no effect”. The “plasma CK18 concentration” value ([3]; 8 weeks (FIG. 4B)) was “no effect”, the “plasma AST concentration” value ([3]; 8 weeks (FIG. 4C)) was “no effect” and the “hepatic expression of genes related to inflammation, tissue remodeling and fibrogenesis” value ([3]; 8 weeks, qPCR (FIG. 5)) was “no effect”. For the same compound, the “fibrosis as compared to placebo” value [4, 5] was “decrease of fibrosis in certain proportion of patients”, the “primary outcome (minimum 2-point improvement in NAS with at least 1-point reduction in lobular inflammation or hepatocellular ballooning)” value [4, 5] was “not met” and the “efficacy on NASH-induced fibrosis” value ([4]; recent phase 2B study) was “shown efficacy”.
